One may read the IC50 as the concentration at which inhibition is half-maximal. Lower therefore signals greater potency in that assay.

Molecules are shown by their SMILES. In brackets after ≈: the same amount, converted by molar mass.

The experiment relates to K562. Nature of the experiment: Cytotoxicity against human K562 cells. The format is functional, cell-based.
`C=C1C(=O)[C@]23C[C@H]1C[C@H](OC(C)=O)[C@H]2[C@]1(C)[C@@H](OC(C)=O)C[C@H](O)C(C)(C)[C@H]1C[C@@H]3OC(C)=O` [ADENANTHIN C] came in with a half-maximal inhibitory concentration (IC50) of 3.3 µg/mL (≈ 6.92 µM).
The result for `C=C1C(=O)[C@]23C[C@H]1C[C@H](O)[C@H]2[C@@]1(C)[C@H](C[C@@H]3OC(C)=O)C(C)(C)[C@@H](OC(C)=O)C[C@@H]1O` [ADENANTHIN F] reads 3.6 µg/mL (≈ 8.28 µM).
The compound `C=C1C(=O)[C@]23C[C@H]1C[C@H](OC(C)=O)[C@H]2[C@]1(C)[C@@H](OC(C)=O)C[C@H](O)C(C)(C)[C@H]1[C@@H](O)[C@@H]3OC(C)=O` [WEISIENSIN A] gave an IC50 of 3.3 µg/mL (≈ 6.7 µM).

Values taken from ChEMBL document CHEMBL1150610, “Diterpenoids from Isodon adenantha” (J Nat Prod, 2002).
